Laboratory results as given in PubChem BioAssay (NCI).
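Following 48 hours of exposure in 96-well plates, responses at five concentrations were used to interpolate endpoints linearly. TGI is the concentration that stops growth completely.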

Legend:
Experiment in all cases: NCI tumour cell line growth inhibition, 48 h
786-0 renal = tested on: 786-0 renal
A549 NSCLC = tested on: A549 NSCLC
CAKI-1 renal = tested on: CAKI-1 renal
HCT-116 colon = tested on: HCT-116 colon
HL-60(TB) leukemia = tested on: HL-60(TB) leukemia
HOP-92 NSCLC = tested on: HOP-92 NSCLC
HT29 colon = tested on: HT29 colon
IGROV1 ovarian = tested on: IGROV1 ovarian
K-562 leukemia = tested on: K-562 leukemia
LOX IMVI melanoma = tested on: LOX IMVI melanoma
M14 melanoma = tested on: M14 melanoma
OVCAR-4 ovarian = tested on: OVCAR-4 ovarian
SF-268 CNS = tested on: SF-268 CNS
SF-295 CNS = tested on: SF-295 CNS
SK-MEL-2 melanoma = tested on: SK-MEL-2 melanoma
SN12C renal = tested on: SN12C renal
SW-620 colon = tested on: SW-620 colon
UO-31 renal = tested on: UO-31 renal
MOLT-4 leukemia = tested on: MOLT-4 leukemia

Compound	TGI (786-0 renal) [µM]	TGI (A549 NSCLC) [µM]	TGI (CAKI-1 renal) [µM]	TGI (HCT-116 colon) [µM]	TGI (HL-60(TB) leukemia) [µM]	TGI (HOP-92 NSCLC) [µM]	TGI (HT29 colon) [µM]	TGI (IGROV1 ovarian) [µM]	TGI (K-562 leukemia) [µM]	TGI (LOX IMVI melanoma) [µM]	TGI (M14 melanoma) [µM]	TGI (OVCAR-4 ovarian) [µM]	TGI (SF-268 CNS) [µM]	TGI (SF-295 CNS) [µM]	TGI (SK-MEL-2 melanoma) [µM]	TGI (SN12C renal) [µM]	TGI (SW-620 colon) [µM]	TGI (UO-31 renal) [µM]	TGI (MOLT-4 leukemia) [µM]
C#CC(C)(C)OCCCCOc1cc(O)c2c(=O)c3ccccc3n(C)c2c1	> 100	> 100	> 100	> 100	> 100	> 100	45.7	> 100	> 100	> 100	> 100	> 100	> 100	> 100	> 100	> 100	> 100	> 100	
Cc1cc2c(=O)c(C)n[nH]c2c(C#N)c1C	> 100	> 100		> 100	> 100	> 100	> 100	> 100		> 100			> 100	> 100		> 100	> 100	> 100	> 100
COC(=O)/C(=N\NC(N)=O)C(C#N)c1ccccc1 (centres undefined)	> 100	> 100		> 100	> 100		> 100		> 100	> 100	> 100	> 100	> 100	> 100	> 100	> 100	> 100	> 100	> 100
Cn1ccc(=NS(=O)(=O)c2ccccc2)cc1	> 100	> 100		> 100	> 100	> 100	> 100	> 100	> 100	> 100			> 100	> 100	> 100		> 100	> 100	> 100
CN1N=C2c3ccccc3OC(c3ccccc3)[C@H]2C1c1ccccc1 (some centres undefined)	> 100	> 100		> 100	> 100	> 100	> 100	> 100	> 100	> 100	> 100	> 100	> 100	> 100	> 100	> 100	> 100	> 100	> 100
COc1cccc(C=O)c1[O-].COc1cccc(C=O)c1[O-].[Zn+2]	> 100	> 100		> 100		83.6	> 100	> 100	> 100	> 100	> 100	> 100	> 100	68.1	> 100	> 100	> 100	90.7	> 100
O=[N+]([O-])c1cccc(C2=NN(c3ccccc3)C3c4ccccc4OCC23)c1 (centres undefined)	> 100	> 100		> 100	> 100	> 100	> 100	> 100	> 100	> 100			> 100	> 100	> 100		> 100	> 100	> 100
CO/N=C(/C(=O)Nc1c[n+](CC(=O)[O-])cs1)c1csc(N)n1	> 100	> 100	> 100	> 100	> 100	> 100	> 100	> 100	> 100	> 100	> 100		> 100	> 100	> 100	> 100	> 100	> 100	> 100
O=c1c(C(c2ccc([N+](=O)[O-])cc2)c2c(O)c3ccccc3n(-c3ccccc3)c2=O)c(O)c2ccccc2n1-c1ccccc1	26.9	> 100	> 100	76.5		29.3		> 100	> 100	27.2		> 100	98.6	33.3	31	> 100	57.7	21.3	41.9
O=C(CC1(O)C(=O)Nc2ccc([N+](=O)[O-])cc21)c1ccncc1 (centres undefined)	> 100	> 100		> 100	56.5		> 100		75.1	29.3	> 100	40.9	> 100	> 100	> 100	> 100	47.9	> 100	70.1
CCCCCCCC(=O)OC[C@H](C[As](=O)(O)O)OC(=O)CCCCCCC	26.7	18.7		19.2	22	31.1	25.2	14.4	41.6		25.6	29.1	15.6	27.5		21.7	20	16.5	14.1
